# According to US20090264528A1, “SERINE PALMITOYLCOA TRANSFERASE (SPT) INHIBITION BY MYRIOCIN OR GENETIC DEFICIENCY DECREASES CHOLESTEROL ABSORPTION” (The Research Foundation of State University of New York, priority 2008, published 2009):
# Key:
# [1] = target: T1, Serine palmitoylCoA transferase (SPT) (Mus musculus, UniProt O35704+P97363); test: Tissue SPT activity assay, small intestine homogenate of treated mice; format: in vivo; conditions: chow diet plus myriocin for 3 weeks, vs chow controls
# T1 construct: from tissue; host or cells: small intestine homogenate of C57BL/6J WT and apoE KO mice fed chow with or without myriocin
# T1 sequence (O35704 1-473): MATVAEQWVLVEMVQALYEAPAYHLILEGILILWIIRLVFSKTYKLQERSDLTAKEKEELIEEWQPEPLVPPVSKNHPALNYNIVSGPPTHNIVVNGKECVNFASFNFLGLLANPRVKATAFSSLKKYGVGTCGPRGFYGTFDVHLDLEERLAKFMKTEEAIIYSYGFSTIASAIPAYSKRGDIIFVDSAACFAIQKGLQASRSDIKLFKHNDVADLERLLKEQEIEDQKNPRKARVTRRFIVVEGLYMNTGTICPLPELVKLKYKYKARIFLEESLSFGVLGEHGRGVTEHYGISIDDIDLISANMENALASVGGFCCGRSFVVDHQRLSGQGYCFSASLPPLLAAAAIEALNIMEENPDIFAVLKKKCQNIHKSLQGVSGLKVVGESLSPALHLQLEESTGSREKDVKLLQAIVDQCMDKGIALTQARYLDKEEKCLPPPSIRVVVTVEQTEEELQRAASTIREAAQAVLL
# T1 sequence (P97363 1-560): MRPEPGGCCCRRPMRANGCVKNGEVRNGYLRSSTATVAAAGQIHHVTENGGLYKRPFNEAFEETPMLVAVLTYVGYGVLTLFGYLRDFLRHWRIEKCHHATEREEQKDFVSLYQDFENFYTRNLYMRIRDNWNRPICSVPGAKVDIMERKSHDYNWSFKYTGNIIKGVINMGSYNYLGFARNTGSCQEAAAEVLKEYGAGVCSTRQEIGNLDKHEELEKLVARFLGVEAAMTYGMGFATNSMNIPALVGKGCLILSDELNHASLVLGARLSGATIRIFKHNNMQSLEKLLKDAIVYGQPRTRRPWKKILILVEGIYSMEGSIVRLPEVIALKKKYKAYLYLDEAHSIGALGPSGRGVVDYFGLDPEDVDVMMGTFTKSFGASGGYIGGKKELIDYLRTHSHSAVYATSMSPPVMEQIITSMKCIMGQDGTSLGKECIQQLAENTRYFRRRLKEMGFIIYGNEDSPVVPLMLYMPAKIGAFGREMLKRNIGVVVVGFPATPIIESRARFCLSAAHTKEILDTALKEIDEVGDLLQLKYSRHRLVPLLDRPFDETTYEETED
# T1 sequence (Q8R207 1-71 partner): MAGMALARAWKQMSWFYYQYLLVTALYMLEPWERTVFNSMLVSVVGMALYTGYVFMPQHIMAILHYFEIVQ
# Protocol: FIGS. 1A-1C depict three graphical representations of SPT deficiency decreased SPT activity in mouse small intestine. SPT activity of small intestine homogenate was measured with […] and palmitoyl-coenzyme A as substrates. TLC was performed to separate the product, 3-keto-dihydrosphingosine (KDS, Inset). KDS band was scanned. In FIG. 1A, wildtype (WT) mice fed chow diet or chow diet plus myriocin. In FIG. 1B, apoE KO (knockout)
# Mice and diet: Male C57BL/6J and apoE KO (Apolipoprotien E knockout) mice with a C57BL/6J background were obtained from the Jackson Laboratory (Bar Harbor, Me.). Sptlc1 heterozygous KO mice with a C57BL/6 background were created and bred in the inventors' laboratory. Myriocin was mixed with a chow diet. […] The myriocin dose was chosen from a previous dose-dependent experiment with apoE-KO mice. Controls consisted of WT or apoE KO mice fed a chow diet (n=6). Sptlc1 heterozygous KO (Sptlc1^+/−)(n=6) and WT mice were also fed a chow diet.
# Tissue SPT activity assay: Mouse small intestine (0.2 g) was homogenized in 0.5 ml of 50 mM Tris-HCl, pH 7.4, 5 mM EDTA, and 250 mM sucrose. SPT activity in the homogenates was measured with [^14C]-serine and palmitoyl-coenzyme A for substrates, as previously described (22), which is incorporated herein by reference in its entirety. […]
# ABCA1 mRNA = test: Real-time PCR, ABCA1 mRNA; format: in vivo, mouse; conditions: for decrease of ABCA1 mRNA levels: liver, P<0.05; for decrease of ABCA1 mRNA levels compared with controls: small intestine, P<0.01
# Protocol: FIGS. 9A-F depict that Mouse small intestine and liver NPC1L1, ABCG5/G8, and ABCA1 mRNA measurements. NPC1L1, ABCG5/G8, and ABCA1 mRNA levels were measured by real-time PCR as described in “Methods and Materials.” FIG. 9A, jejunum from WT mice with or without myriocin treatment; FIG. 9B, jejunum from apoE KO mice with or without myriocin treatment; FIG. 9C, jejunum from WT and Sptlc1^+/− mice; FIG. 9D, liver from WT mice with or without myriocin treatment; FIG. 9E, liver from apoE KO mice with or without myriocin treatment; FIG. 9F, liver from WT and Sptlc1^+/− mice. Values are mean±SD, n=5. *P<0.01.
# Real-time PCR examined genes' expression: Mice were sacrificed by cervical dislocation. Jejunum was dissected, and total RNA extracted with Trizol (Invitrogen). cDNA was synthesized with an Invitrogen kit. Polymerase chain reaction (PCR) was performed on a total volume of 20 microl with the sybergreen kit from Applied Biosystems, 18S being used as an internal control. The amplification program consisted of activation at 95 degrees C. for 10 minutes, followed by 40 amplification cycles: 95 degrees C. for 15 seconds, 60 degrees C. for 1 minute. Each sample was triplicated. The genes' relative expression was expressed as mean±SD. The primers are located in the below table which lists the name, sequence, and sequence identification number.
# For further elucidation of the possible mechanisms for cholesterol absorption reduction in the SPT-deficient small intestine, NPC1L1, ABCG5/G8, and ABCA1 mRNA levels in myriocin-treated WT, apoE KO, and Sptlc1^+/− mice, as well as in controls were measured. […] Moreover, intestinal MTP activity was not influenced by SPT deficiency (data not shown). Also, the liver mRNA levels were measured to find that myriocin treatment or Sptlc1 deficiency has no influence on ABCG5/G8 mRNA levels […]. […] NPC1L1 mRNA in WT or Sptlc1^+/− livers were not detected (data not shown).
compound,measurement,setting,value
"CCCCCCC(=O)CCCCCC/C=C/C[C@@H](O)[C@H](O)[C@@](N)(CO)C(=O)O [Myriocin, myriocin]",less SPT activity than controls in the small intestine,[1]; WT mice,60%
same,less SPT activity than controls in the small intestine,[1]; apoE KO mice,65%
same,decrease of ABCA1 mRNA levels,ABCA1 mRNA; WT mice,20%
same,decrease of ABCA1 mRNA levels,ABCA1 mRNA; apoE KO mice,18%
same,decrease of ABCA1 mRNA levels compared with controls,ABCA1 mRNA; WT mice,48%
same,decrease of ABCA1 mRNA levels compared with controls,ABCA1 mRNA; apoE KO mice,39%
